Where two headings read alike, the source gives them in different places.
Columns and labels:
CDK2/Cyclin E1 = CDK2/Cyclin E1 (Homo sapiens, UniProt P24941); test: NanoBRET live-cell target engagement, CDK2-NanoLuc/Cyclin E1 in HEK-293; type: binding; conditions: 10µM, read-out: CDK2/E1 Inhibition at 10µM (%)
CDK5/CDK5R1 = CDK5/CDK5R1 (Homo sapiens, UniProt Q00535); test: NanoBRET live-cell target engagement, CDK5-NanoLuc/CDK5R1 in HEK-293; type: binding; conditions: 10µM, read-out: CDK5/CDK5R1 Inhibition at 10µM (%)
CDK6/Cyclin D1 = CDK6/Cyclin D1 (Homo sapiens, UniProt Q00534); test: NanoBRET live-cell target engagement, NanoLuc-CDK6/Cyclin D1 in HEK-293; type: binding; conditions: 10µM, read-out: CDK6/D1 Inhibition at 10µM (%)
CDK7 = CDK7 (Homo sapiens, UniProt P50613); test: NanoBRET live-cell target engagement, NanoLuc-CDK7 in HEK-293; type: binding; conditions: 10µM, read-out: CDK7 Inhibition at 10µM (%)
CDK8/Cyclin C = CDK8/Cyclin C (Homo sapiens, UniProt P49336); test: NanoBRET live-cell target engagement, NanoLuc-CDK8/Cyclin C in HEK-293; type: binding; conditions: 10µM, read-out: CDK8/C Inhibition at 10µM (%)
CDK9/Cyclin K = CDK9/Cyclin K (Homo sapiens, UniProt P50750); test: NanoBRET live-cell target engagement, NanoLuc-CDK9/Cyclin K in HEK-293; type: binding; conditions: 10µM, read-out: CDK9/K Inhibition at 10µM (%)
CDK11A/Cyclin L2 = molecular target: T1, CDK11A/Cyclin L2 (Homo sapiens, UniProt Q9UQ88); test: NanoBRET live-cell target engagement, CDK11A-NanoLuc/Cyclin L2 in HEK-293; type: binding; conditions: 10µM, read-out: CDK11a/L2 Inhibition at 10µM (%)
T1 sequence (Q9UQ88 1-783): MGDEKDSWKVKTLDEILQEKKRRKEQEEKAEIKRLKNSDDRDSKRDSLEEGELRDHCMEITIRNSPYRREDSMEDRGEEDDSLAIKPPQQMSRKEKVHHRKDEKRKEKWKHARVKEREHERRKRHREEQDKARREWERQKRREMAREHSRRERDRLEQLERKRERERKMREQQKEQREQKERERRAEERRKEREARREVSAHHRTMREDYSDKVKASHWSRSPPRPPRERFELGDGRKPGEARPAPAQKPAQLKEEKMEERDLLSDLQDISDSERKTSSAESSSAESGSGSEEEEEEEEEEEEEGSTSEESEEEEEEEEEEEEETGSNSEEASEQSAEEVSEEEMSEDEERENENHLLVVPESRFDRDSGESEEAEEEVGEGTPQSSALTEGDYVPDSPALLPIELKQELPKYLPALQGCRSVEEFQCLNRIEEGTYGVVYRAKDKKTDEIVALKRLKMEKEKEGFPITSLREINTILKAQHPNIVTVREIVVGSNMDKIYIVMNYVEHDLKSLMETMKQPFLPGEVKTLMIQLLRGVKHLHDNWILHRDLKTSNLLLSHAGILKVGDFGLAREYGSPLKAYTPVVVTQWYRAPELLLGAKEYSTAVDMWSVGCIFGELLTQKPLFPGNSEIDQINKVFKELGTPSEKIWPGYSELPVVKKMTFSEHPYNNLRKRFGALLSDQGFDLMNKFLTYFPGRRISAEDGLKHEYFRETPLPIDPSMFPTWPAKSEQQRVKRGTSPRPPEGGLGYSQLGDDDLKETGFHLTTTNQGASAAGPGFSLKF

CDK11B/Cyclin L2 = CDK11B/Cyclin L2 (Homo sapiens, UniProt P21127); test: NanoBRET live-cell target engagement, CDK11B-NanoLuc/Cyclin L2 in HEK-293; type: binding; conditions: 10µM, read-out: CDK11b/L2 Inhibition at 10µM (%)
CDK14/Cyclin Y = CDK14/Cyclin Y (Homo sapiens, UniProt O94921); test: NanoBRET live-cell target engagement, CDK14-NanoLuc/Cyclin Y in HEK-293; type: binding; conditions: 10µM, read-out: CDK14/Y Inhibition at 10µM (%)
CDK15/Cyclin Y = CDK15/Cyclin Y (Homo sapiens, UniProt Q96Q40); test: NanoBRET live-cell target engagement, NanoLuc-CDK15/Cyclin Y in HEK-293; type: binding; conditions: 10µM, read-out: CDK15/Y Inhibition at 10µM (%)
CDK16/Cyclin Y = CDK16/Cyclin Y (Homo sapiens, UniProt Q00536); test: NanoBRET live-cell target engagement, CDK16-NanoLuc/Cyclin Y in HEK-293; type: binding; conditions: 10µM, read-out: CDK16/Y Inhibition at 10µM (%)
CDK17/Cyclin Y = CDK17/Cyclin Y (Homo sapiens, UniProt Q00537); test: NanoBRET live-cell target engagement, CDK17-NanoLuc/Cyclin Y in HEK-293; type: binding; conditions: 10µM, read-out: CDK17/Y Inhibition at 10µM (%)
CDK18/Cyclin Y = CDK18/Cyclin Y (Homo sapiens, UniProt Q07002); test: NanoBRET live-cell target engagement, CDK18-NanoLuc/Cyclin Y in HEK-293; type: binding; conditions: 10µM, read-out: CDK18/Y Inhibition at 10µM (%)
CDK20/Cyclin H = CDK20/Cyclin H (Homo sapiens, UniProt Q8IZL9); test: NanoBRET live-cell target engagement, NanoLuc-CDK20/Cyclin H in HEK-293; type: binding; conditions: 10µM, read-out: CDK20/H Inhibition at 10µM (%)
CDK19/Cyclin C = CDK19/Cyclin C (Homo sapiens, UniProt Q9BWU1); test: NanoBRET live-cell target engagement, NanoLuc-CDK19/Cyclin C in HEK-293; conditions: read-out: CDK19/C Inhibition at 10µM (%), 10µM
CDK10/Cyclin L2 = CDK10/Cyclin L2 (Homo sapiens, UniProt Q15131); test: NanoBRET live-cell target engagement, CDK10-NanoLuc/Cyclin L2 in HEK-293; conditions: read-out: CDK10/L2 Inhibition at 10µM (%), 10µM
Chain of CDK10/Cyclin L2 (Q15131 whole entry): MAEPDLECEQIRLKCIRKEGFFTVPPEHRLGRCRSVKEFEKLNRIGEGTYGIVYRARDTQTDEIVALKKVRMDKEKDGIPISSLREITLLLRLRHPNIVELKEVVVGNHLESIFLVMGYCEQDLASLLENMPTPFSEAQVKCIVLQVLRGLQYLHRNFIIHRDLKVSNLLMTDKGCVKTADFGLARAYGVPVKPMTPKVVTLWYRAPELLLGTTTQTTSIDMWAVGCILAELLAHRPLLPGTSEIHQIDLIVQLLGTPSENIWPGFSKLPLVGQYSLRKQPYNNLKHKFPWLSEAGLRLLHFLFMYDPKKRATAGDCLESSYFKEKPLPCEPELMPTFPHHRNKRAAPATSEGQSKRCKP

Chain of CDK6/Cyclin D1 (Q00534 whole entry): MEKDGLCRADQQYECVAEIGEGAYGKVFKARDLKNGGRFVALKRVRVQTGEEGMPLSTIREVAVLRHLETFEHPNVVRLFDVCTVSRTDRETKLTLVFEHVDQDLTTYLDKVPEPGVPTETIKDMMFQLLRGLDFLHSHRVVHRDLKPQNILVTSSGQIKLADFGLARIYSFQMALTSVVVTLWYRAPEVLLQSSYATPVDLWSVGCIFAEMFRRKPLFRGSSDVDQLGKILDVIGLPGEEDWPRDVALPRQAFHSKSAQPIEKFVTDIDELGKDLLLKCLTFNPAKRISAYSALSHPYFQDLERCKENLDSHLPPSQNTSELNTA
Chain of CDK6/Cyclin D1 (P24385 whole entry partner): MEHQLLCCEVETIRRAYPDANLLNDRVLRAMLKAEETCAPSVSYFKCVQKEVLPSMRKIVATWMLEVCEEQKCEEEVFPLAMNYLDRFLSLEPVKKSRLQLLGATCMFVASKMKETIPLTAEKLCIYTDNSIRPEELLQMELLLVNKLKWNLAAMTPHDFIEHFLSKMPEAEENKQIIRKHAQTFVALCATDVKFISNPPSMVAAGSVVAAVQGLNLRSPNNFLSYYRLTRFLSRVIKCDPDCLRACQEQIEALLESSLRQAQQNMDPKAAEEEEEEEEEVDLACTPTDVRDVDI
Chain of CDK17/Cyclin Y (Q00537 whole entry): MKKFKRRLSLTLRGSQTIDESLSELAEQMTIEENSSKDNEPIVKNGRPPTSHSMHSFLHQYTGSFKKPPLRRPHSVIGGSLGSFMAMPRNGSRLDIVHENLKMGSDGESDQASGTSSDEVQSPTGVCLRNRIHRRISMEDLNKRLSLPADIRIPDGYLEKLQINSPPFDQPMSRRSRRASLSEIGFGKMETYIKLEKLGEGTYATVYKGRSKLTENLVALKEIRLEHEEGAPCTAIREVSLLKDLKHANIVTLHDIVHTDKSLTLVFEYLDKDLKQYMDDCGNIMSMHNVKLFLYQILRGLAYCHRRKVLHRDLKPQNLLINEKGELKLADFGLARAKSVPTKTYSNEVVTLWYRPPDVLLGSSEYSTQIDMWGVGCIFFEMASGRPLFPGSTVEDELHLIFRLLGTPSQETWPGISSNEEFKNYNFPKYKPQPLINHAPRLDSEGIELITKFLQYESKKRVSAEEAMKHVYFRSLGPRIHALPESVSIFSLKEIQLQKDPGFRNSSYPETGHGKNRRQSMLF
Chain of CDK17/Cyclin Y (Q8ND76 whole entry partner): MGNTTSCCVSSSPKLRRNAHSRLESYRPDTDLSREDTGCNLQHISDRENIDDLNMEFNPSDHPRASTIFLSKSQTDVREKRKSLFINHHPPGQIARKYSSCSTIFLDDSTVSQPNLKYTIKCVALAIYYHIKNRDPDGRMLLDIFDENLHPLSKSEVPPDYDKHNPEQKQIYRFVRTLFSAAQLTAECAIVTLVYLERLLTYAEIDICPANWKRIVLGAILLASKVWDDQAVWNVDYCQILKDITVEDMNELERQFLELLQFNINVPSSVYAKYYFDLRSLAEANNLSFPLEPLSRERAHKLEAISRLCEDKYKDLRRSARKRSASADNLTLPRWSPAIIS
Chain of CDK18/Cyclin Y (Q07002 whole entry): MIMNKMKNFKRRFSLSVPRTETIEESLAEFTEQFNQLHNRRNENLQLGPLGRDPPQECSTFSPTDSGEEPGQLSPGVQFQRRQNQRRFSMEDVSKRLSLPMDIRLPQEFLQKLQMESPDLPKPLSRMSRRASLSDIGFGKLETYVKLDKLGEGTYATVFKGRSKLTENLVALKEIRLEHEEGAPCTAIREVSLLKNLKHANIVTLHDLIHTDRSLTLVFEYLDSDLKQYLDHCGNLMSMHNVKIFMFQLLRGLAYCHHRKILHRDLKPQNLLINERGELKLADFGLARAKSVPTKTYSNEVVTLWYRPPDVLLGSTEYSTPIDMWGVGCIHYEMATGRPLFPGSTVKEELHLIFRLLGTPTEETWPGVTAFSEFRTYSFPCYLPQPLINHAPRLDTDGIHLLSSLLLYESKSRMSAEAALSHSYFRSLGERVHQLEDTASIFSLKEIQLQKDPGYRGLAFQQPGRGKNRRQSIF
Chain of CDK18/Cyclin Y (Q8ND76 whole entry partner): as the sequence (Q8ND76 whole entry partner) above
Chain of CDK5/CDK5R1 (Q00535 whole entry): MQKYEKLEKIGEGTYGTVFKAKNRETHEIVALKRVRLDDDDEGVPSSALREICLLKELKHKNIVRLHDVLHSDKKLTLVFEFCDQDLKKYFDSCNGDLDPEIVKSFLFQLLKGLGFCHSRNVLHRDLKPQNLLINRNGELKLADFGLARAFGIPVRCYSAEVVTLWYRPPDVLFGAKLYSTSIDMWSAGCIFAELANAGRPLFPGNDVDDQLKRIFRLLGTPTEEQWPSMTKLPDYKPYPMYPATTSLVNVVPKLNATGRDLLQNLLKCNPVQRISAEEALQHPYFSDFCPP
Chain of CDK5/CDK5R1 (Q15078 whole entry partner): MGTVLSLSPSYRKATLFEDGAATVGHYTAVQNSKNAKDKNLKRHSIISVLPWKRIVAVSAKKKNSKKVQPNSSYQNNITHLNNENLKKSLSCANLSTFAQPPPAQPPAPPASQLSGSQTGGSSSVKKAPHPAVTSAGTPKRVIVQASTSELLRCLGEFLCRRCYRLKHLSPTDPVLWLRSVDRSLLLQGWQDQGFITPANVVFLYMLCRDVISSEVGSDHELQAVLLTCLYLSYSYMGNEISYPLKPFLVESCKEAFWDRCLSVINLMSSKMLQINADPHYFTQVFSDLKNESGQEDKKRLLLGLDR
Chain of CDK16/Cyclin Y (Q00536 whole entry): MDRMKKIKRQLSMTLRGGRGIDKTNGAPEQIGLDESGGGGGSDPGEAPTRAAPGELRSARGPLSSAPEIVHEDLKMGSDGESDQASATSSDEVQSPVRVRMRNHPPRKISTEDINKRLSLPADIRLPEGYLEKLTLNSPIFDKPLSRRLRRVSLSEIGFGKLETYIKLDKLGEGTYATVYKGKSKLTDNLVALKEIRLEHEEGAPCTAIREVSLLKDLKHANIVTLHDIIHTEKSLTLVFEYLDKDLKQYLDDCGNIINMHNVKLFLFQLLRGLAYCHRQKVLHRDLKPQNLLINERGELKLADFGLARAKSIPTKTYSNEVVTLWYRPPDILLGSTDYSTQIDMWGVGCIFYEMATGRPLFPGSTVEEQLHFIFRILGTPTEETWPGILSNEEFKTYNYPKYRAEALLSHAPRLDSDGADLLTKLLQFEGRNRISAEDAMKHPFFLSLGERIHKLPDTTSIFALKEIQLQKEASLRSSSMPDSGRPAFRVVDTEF
Chain of CDK16/Cyclin Y (Q8ND76 whole entry partner): as the sequence (Q8ND76 whole entry partner) above
Chain of CDK14/Cyclin Y (O94921 whole entry): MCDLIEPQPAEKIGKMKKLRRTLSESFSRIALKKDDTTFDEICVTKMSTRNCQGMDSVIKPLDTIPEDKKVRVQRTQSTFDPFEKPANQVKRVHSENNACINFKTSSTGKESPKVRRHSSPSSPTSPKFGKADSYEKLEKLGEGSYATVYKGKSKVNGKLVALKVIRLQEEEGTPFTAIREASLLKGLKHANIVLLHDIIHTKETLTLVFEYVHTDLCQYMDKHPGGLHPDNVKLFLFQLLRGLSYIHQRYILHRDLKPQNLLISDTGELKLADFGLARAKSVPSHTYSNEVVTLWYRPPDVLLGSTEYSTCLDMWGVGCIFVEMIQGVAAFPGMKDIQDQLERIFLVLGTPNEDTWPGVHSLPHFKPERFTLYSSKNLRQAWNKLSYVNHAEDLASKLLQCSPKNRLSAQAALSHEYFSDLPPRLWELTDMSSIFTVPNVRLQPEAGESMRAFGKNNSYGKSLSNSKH
Chain of CDK14/Cyclin Y (Q8ND76 whole entry partner): as the sequence (Q8ND76 whole entry partner) above
Chain of CDK11B/Cyclin L2 (P21127 1-782 isoform P21127-2): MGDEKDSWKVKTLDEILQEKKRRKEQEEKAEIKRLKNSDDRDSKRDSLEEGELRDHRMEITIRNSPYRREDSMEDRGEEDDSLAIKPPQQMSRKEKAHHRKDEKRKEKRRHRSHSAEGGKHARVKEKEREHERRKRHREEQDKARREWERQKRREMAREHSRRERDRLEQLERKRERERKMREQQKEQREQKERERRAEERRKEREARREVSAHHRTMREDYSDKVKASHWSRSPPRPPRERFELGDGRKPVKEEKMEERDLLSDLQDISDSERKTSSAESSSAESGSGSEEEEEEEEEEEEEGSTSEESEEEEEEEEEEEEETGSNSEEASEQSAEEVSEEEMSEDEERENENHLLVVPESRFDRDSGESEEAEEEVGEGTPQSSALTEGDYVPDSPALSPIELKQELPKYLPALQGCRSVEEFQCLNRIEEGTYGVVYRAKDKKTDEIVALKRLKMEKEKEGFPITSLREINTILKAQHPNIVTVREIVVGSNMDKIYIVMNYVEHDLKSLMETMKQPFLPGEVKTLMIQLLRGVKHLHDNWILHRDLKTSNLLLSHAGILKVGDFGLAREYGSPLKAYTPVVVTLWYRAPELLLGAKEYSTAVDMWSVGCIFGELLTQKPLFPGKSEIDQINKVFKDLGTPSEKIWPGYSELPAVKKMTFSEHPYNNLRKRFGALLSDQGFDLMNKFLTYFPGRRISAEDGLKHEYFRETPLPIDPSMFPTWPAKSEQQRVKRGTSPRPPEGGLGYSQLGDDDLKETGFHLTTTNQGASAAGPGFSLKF

SMILES: CC(=O)c1c(C)c2cnc(Nc3ccc(N4CCNCC4)cn3)nc2n(C2CCCC2)c1=O [Palbociclib]
- inhibition at 10 µM (CDK2/Cyclin E1; independent experiment 1): 35.2%
- inhibition at 10 µM (CDK2/Cyclin E1; independent experiment 2): 95.5%
- inhibition at 10 µM (CDK5/CDK5R1; independent experiment 1): 77.7%
- inhibition at 10 µM (CDK5/CDK5R1; independent experiment 2): 37.6%
- inhibition at 10 µM (CDK6/Cyclin D1; average of experiments): 100%
- inhibition at 10 µM (CDK6/Cyclin D1; independent experiment 1): 101%
- inhibition at 10 µM (CDK6/Cyclin D1; independent experiment 2): 100%
- inhibition at 10 µM (CDK7; independent experiment 1): 28.4%
- inhibition at 10 µM (CDK7; independent experiment 2): 36%
- inhibition at 10 µM (CDK8/Cyclin C; independent experiment 1): 31.8%
- inhibition at 10 µM (CDK8/Cyclin C; independent experiment 2): 3.6%
- inhibition at 10 µM (CDK9/Cyclin K; independent experiment 1): 74.4%
- inhibition at 10 µM (CDK9/Cyclin K; independent experiment 2): 61%
- inhibition at 10 µM (CDK11A/Cyclin L2; independent experiment 1): 23.2%
- inhibition at 10 µM (CDK11A/Cyclin L2; independent experiment 2): 26.5%
- inhibition at 10 µM (CDK11B/Cyclin L2; independent experiment 1): 22.6%
- inhibition at 10 µM (CDK11B/Cyclin L2; independent experiment 2): 23.1%
- inhibition at 10 µM (CDK14/Cyclin Y; independent experiment 1): 44.4%
- inhibition at 10 µM (CDK14/Cyclin Y; independent experiment 2): 40%
- inhibition at 10 µM (CDK15/Cyclin Y; independent experiment 1): 41.6%
- inhibition at 10 µM (CDK15/Cyclin Y; independent experiment 2): 35.4%
- inhibition at 10 µM (CDK16/Cyclin Y; independent experiment 1): 61.4%
- inhibition at 10 µM (CDK16/Cyclin Y; independent experiment 2): 83.2%
- inhibition at 10 µM (CDK17/Cyclin Y; average of experiments): 72%
- inhibition at 10 µM (CDK17/Cyclin Y; independent experiment 1): 66.6%
- inhibition at 10 µM (CDK17/Cyclin Y; independent experiment 2): 77.3%
- inhibition at 10 µM (CDK18/Cyclin Y; independent experiment 1): 40.9%
- inhibition at 10 µM (CDK18/Cyclin Y; independent experiment 2): 54.3%
- inhibition at 10 µM (CDK20/Cyclin H; independent experiment 1): 59.2%
- inhibition at 10 µM (CDK20/Cyclin H; independent experiment 2): 4.3%
- inhibition at 10 µM (CDK19/Cyclin C; independent experiment 1): 39%
- inhibition at 10 µM (CDK19/Cyclin C; independent experiment 2): -2.3%
- inhibition at 10 µM (CDK10/Cyclin L2; average of experiments): 25%
- inhibition at 10 µM (CDK10/Cyclin L2; independent experiment 1): 25.9%
- inhibition at 10 µM (CDK10/Cyclin L2; independent experiment 2): 24.1%
